We go through two compounds from patent US20190105367A1, “ANTIMICROBIAL 4-OXOQUINOLIZINES” (Emergent Product Development Gaithersburg Inc., priority 2011, published 2019).

Converted amounts (≈) assume the structure as drawn.

For assay [1], the system named is A. baumannii ATCC 19606. Description: MIC without and with sub-inhibitory polymyxin B (Example 4). It counts as cell-based, Acinetobacter baumannii. The settings on record: 1st experiment.
The subject of assay [2] is A. baumannii A14. The assay is described as above. Format: cell-based, Acinetobacter baumannii. The settings on record: 1st experiment.
Assay [3] has as its system strains of A. baumannii and one strain of Acinetobacter sp. Description: MIC with sub-inhibitory concentrations (0.25x MIC) of polymyxin B, panel of Acinetobacter strains (Example 4). Format: cell-based. The settings on record: 1st experiment; […] polymyxin B; ATCC 19606, A329, A390 and A473 not taken.
Assay [4] concerns A. baumannii ATCC 19606. In words: Preliminary MBC without and with sub-inhibitory polymyxin B (Example 4). Format: cell-based, Acinetobacter baumannii. To be noted: Acinetobacter baumannii, ATCC19606, read-out: MBC +0.06 μg/ml PB, A. baumannii ATCC 19606, +0.06 μg/ml polymyxin B, 1st experiment.
Assay [5] deals with A. baumannii A472. In words: MIC without and with sub-inhibitory polymyxin B (Example 4). Format: cell-based, Acinetobacter baumannii. To be noted: 1st experiment.
For assay [6], the system named is A. baumannii A401. The description is as above. Format: cell-based, Acinetobacter baumannii. To be noted: 1st experiment.
The subject of assay [7] is A. baumannii J2. Description: Preliminary MBC without and with sub-inhibitory polymyxin B (Example 4). Format: cell-based, Acinetobacter baumannii. To be noted: Acinetobacter baumannii, J2, read-out: MBC +[…] PB, A. baumannii J2; +[…] polymyxin B; preliminary MBC; 1st experiment.
In assay [8] the test system is A. baumannii NCTC 13301. The assay is described as above. Format: cell-based, Acinetobacter baumannii. To be noted: Acinetobacter baumannii, NCTC13301, read-out: MBC +[…] PB. As to the method:
(§1) The plates were incubated for 18-20 hours at 37° C. The MBC was read as the lowest concentration at which colony growth was ca. 90% less than the positive control (i.e. usually where single colonies or no colonies were observed).

The test system of assay [9] is A. baumannii A387. In words: MIC without and with sub-inhibitory polymyxin B (Example 4). Format: cell-based, Acinetobacter baumannii. To be noted: 1st experiment.
Assay [10] deals with A. baumannii A14. In words: Preliminary MBC without and with sub-inhibitory polymyxin B (Example 4). Format: cell-based, Acinetobacter baumannii. The settings on record: A. baumannii A14, preliminary MBC, 1st experiment.
Assay [11] relates to Acinetobacter sp. (H064200250). Described as above. Format: cell-based. The settings on record: Acinetobacter, read-out: MBC +[…] PB, Acinetobacter spp. H064200250; +[…] polymyxin B; preliminary MBC; 1st experiment. As to the method:
as §1

The subject of assay [12] is A. baumannii A472. The assay is described as above. Format: cell-based, Acinetobacter baumannii. The settings on record: Acinetobacter baumannii, A472, read-out: MBC +[…] PB, A. baumannii A472; +[…] polymyxin B; preliminary MBC; 1st experiment.
Assay [13] relates to A. baumannii A401. Described as above. Format: cell-based, Acinetobacter baumannii. The settings on record: Acinetobacter baumannii, A401, read-out: MBC +0.06 μg/ml PB, A baumannii A 401, +0.06 μg/ml polymyxin B, 1st experiment.
Assay [14] has as its system A. baumannii A489. Described as above. Format: cell-based, Acinetobacter baumannii. The settings on record: Acinetobacter baumannii, A489, read-out: MBC +[…] PB, A. baumannii A489; +[…] polymyxin B; preliminary MBC; 1st experiment.
Assay [15] concerns Acinetobacter sp. (H064200250). In words: MIC without and with sub-inhibitory polymyxin B (Example 4). To be noted: 1st experiment. It counts as cell-based.
The test system of assay [16] is A. baumannii A387. In words: Preliminary MBC without and with sub-inhibitory polymyxin B (Example 4). Format: cell-based, Acinetobacter baumannii. The settings on record: Acinetobacter baumannii, A387, read-out: MBC +0.06 μg/ml PB, A. baumannii A387, +0.06 μg/ml polymyxin B, 1st experiment.
For assay [17], the system named is A. baumannii A489. In words: MIC without and with sub-inhibitory polymyxin B (Example 4). It counts as cell-based, Acinetobacter baumannii. To be noted: 1st experiment.
Assay [18] relates to A. baumannii NCTC 13301. Described as above. Format: cell-based, Acinetobacter baumannii.
The subject of assay [19] is A. baumannii J2. Described as above. Format: cell-based, Acinetobacter baumannii. To be noted: 1st experiment.
The subject of assay [20] is GN52 Acinetobacter baumannii levofloxacin resistant clinical isolate. Description: Chequerboard synergy with polymyxin B, FICI (Example 6). It counts as cell-based. The text has this: (§2) A chequerboard technique was used to identify possible synergistic or antagonistic interactions between the 4-oxoquinolizines compounds, levofloxacin and polymyxin B. Levofloxacin was included as a control. […] Final dilutions were made in Mueller-Hinton broth, the specific test medium used for MIC determinations according to CLSI guidelines (CLSI. Methods for Dilution Antimicrobial Susceptibility Tests for Bacteria That Grow Aerobically; Approved Standard-Eighth Edition (2009). CLSI Document M07-A8. CLSI, Wayne, Pa. 19087-1898, USA.). The test medium used was a cation-adjusted Mueller-Hinton Broth II (Becton Dickinson UK Ltd., Oxford Science Park, Oxford, UK, OX4 4DQ).
(§3) The compounds 2, 33 and 35, as well as levofloxacin were tested in combination with polymyxin B on the following isolates: GN31 Acinetobacter baumannii—antibiotic susceptible clinical isolate, GN52 Acinetobacter baumannii—levofloxacin resistant clinical isolate, GN56 Acinetobacter baumannii—levofloxacin resistant clinical isolate, GN48 Klebsiella pneumoniae—NCTC 13443—NDM-1-metallo-β-lactamase and GN10 Pseudomonas aeruginosa—ATCC 27853—antibiotic susceptible reference isolate. All isolates are from the collection maintained at Quotient Bioresearch Ltd., Cambridge, UK.
(§4) The MIC values for the compounds and polymyxin B and levofloxacin were determined by broth microdilution following CLSI guidelines, and the MICs of agents in combination were determined as described by Pillai et. al (Pillai S K, Moellering R C Jr, Eliopoulis G M; Antimicrobial Combinations in Antibiotics in Laboratory Medicine 5th Edition (V. Lorian Ed) (2005) p 365-440). Initial MIC results were used to determine the microtiter plate patterns for the chequerboards. A suitable doubling dilution concentration range was selected such that the combination antibiotic range was at least two concentrations above and four concentrations below the MIC for each isolate. A fixed range of 0.008 to 8 mg/L was tested for polymyxin B except in the case of A. baumannii GN31 where a range of 0.004 to 4 mg/L was tested when in combination with the compounds 2, 33 and 35 as well as levofloxacin.
(§5) From the raw data, fractional inhibitory concentration indices (FICI) were determined for the compounds of the invention and levofloxacin together with polymyxin B for each isolate as follows:
(§6) FICX=concentration of the combination antibiotic in a particular row MIC of the combination drug alone
(§7) FICY=MIC of polymyxin B in combination[…]MIC of the polymyxin B alone
(§8) Additionally isobolograms were created to represent the same data visually. Here, the MIC of polymyxin B was plotted against every concentration of the combination antibiotic up to the MIC.

For assay [21], the system named is GN56 Acinetobacter baumannii levofloxacin resistant clinical isolate. The assay is described as above. Format: cell-based.
Description: as §2, §3, §4, §5, §6, §7, §8

Where [22] appears, read: in combination with polymyxin B.
Setting [23] is: polymyxin B with the named antibiotic.

With `Cc1c(-c2ccc(N)c(F)c2)c(F)cn2c(=O)c(C(=O)O)cc(C3CC3)c12` [Compound 17, 8-(3-fluoro-4-amino-phenyl)-1-cyclopropyl-7-fluoro-9-methyl-4-oxo-quinolizine-3-carboxylic acid], the “MIC without PB/MIC + PB” value is no less than 16 with A. baumannii ATCC 19606 [1] (A. baumannii ATCC 19606, ratio, PB 0.06 μg/ml); 16 with A. baumannii A14 [2] (ratio, PB 0.06 μg/ml); no less than 128 with A. baumannii A472 [5] (A. baumannii A472, ratio, PB […]); 8 in the assay with A. baumannii A401 [6] (A baumannii A 401, ratio, PB 0.06 μg/ml); no less than 32 in the assay on A. baumannii A387 [9] (A. baumannii A387, ratio, PB 0.06 μg/ml); 128 in assay [15] (Acinetobacter spp. H064200250, ratio, PB […]). Moreover, the “MIC without PB/MIC + PB” value in the assay on A. baumannii A489 [17] (A. baumannii A489, ratio, PB […]) is recorded as no less than 256; in the assay with A. baumannii NCTC 13301 [18] (A. baumannii NCTC 13301, ratio, PB […], 1st experiment), no less than 512; in the assay on A. baumannii J2 [19] (A. baumannii J2, ratio, PB […]), 64. Moreover, the MIC in the assay on A. baumannii ATCC 19606 [1] (Acinetobacter baumannii, ATCC19606, read-out: MIC +0.06 μg/ml PB, A. baumannii ATCC 19606, +0.06 μg/ml polymyxin B) is no more than 0.03 µg/mL; in the assay on A. baumannii A14 [2] (Acinetobacter baumannii, 24 h, without polymyxin B, read-out: MIC without PB), 16 µg/mL (≈ 43.2 µM); in the assay on A. baumannii A472 [5] (Acinetobacter baumannii, A472, read-out: MIC +[…] PB, A. baumannii A472, +[…] polymyxin B), no more than 0.03 µg/mL; with A. baumannii A401 [6] (Acinetobacter baumannii, A401, read-out: MIC +0.06 μg/ml PB, A baumannii A 401, +0.06 μg/ml polymyxin B), 0.5 µg/mL; with A. baumannii A387 [9] (Acinetobacter baumannii, A387, read-out: MIC +0.06 μg/ml PB, A. baumannii A387, +0.06 μg/ml polymyxin B), no more than 0.03 µg/mL; in assay [15] (Acinetobacter, read-out: MIC +[…] PB, Acinetobacter spp. H064200250, +[…] polymyxin B) it was 0.06 µg/mL (≈ 0.162 µM). The MIC was no more than 0.03 µg/mL with A. baumannii A489 [17] (Acinetobacter baumannii, A489, read-out: MIC +[…] PB, A. baumannii A489, +[…] polymyxin B); no more than 0.03 µg/mL with A. baumannii NCTC 13301 [18] (Acinetobacter baumannii, NCTC13301, read-out: MIC +[…] PB); 0.06 µg/mL (≈ 0.162 µM) in the assay on A. baumannii J2 [19] (Acinetobacter baumannii, J2, read-out: MIC +[…] PB, A. baumannii J2, +[…] polymyxin B). Further, the “MIC +0.06 μg/ml PB” value in the assay on A. baumannii A14 [2] (+0.06 μg/ml polymyxin B) is 1 µg/mL. Also, the “MIC range with PB (0.25x MIC) Oct. 1, 2008 n = 8” value in assay [3] is no more than 0.03 to 1 µg/mL. Besides, the MBC in the assay on A. baumannii ATCC 19606 [4] is no more than 0.03 µg/mL; with A. baumannii J2 [7] it was 0.06 µg/mL (≈ 0.162 µM); in the assay on A. baumannii NCTC 13301 [8] it was no more than 0.03 µg/mL; in the assay on A. baumannii A14 [10] (Acinetobacter baumannii, without polymyxin B, read-out: MBC without PB) it was 16 µg/mL (≈ 43.2 µM); in assay [11] it was 0.06 µg/mL (≈ 0.162 µM); in the assay with A. baumannii A472 [12], 0.125 µg/mL (≈ 0.338 µM). The results for the MBC in the assay on A. baumannii A401 [13], in the assay on A. baumannii A489 [14] and in the assay on A. baumannii A387 [16] were 0.5 µg/mL, no more than 0.03 µg/mL and no more than 0.03 µg/mL, respectively. Moreover, the “MBC +0.06 μg/ml PB” value in the assay with A. baumannii A14 [10] (+0.06 μg/ml polymyxin B) was determined as 1 µg/mL.
Consider `Cc1c(-c2ccc(N)nc2)ccn2c(=O)c(C(=O)O)cc(C3CC3)c12` [Compound 33, 8-(6-amino-3-pyridyl)-1-cyclopropyl-9-methyl-4-oxo-quinolizine-3-carboxylic acid], for which the “Combination drug MIC alone” value turned out to be 4 µg/mL in [20] and 32 µg/mL in assay [21]. The values for the FICx in assay [20] and in [21] were 0.25 and 0.06, respectively. Further, the FICy in assay [20] and in [21] was 0.24 in each case. Moreover, the FICI in assay [20] (combination with polymyxin B) stood at 0.49; in assay [21] (combination with polymyxin B), 0.30. Besides, the Synergy result in assay [20] (combination with polymyxin B) and in [21] (combination with polymyxin B) was “Synergy (Synergy (FICI <0.5))” in each case. For the same compound, the “Combination drug concentration in combination” value in assay [20] (setting [22]) is given as 1 mg/L; in assay [21] (setting [22]), 2 mg/L. For the same compound, the “Polymyxin B MIC in combination” value in [20] (setting [23]) and in assay [21] (setting [23]) was 0.12 µg/mL each time.
